Measured values reported in PubChem BioAssay (NCI).
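Step 1: Grow cells in 96-well plates. Step 2: Expose to compound for 48 hours at 5 concentrations. Step 3: Interpolate endpoints linearly; if unreached, use highest concentration. The concentration for full growth arrest is given as TGI.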

Legend:
Test in all cases: NCI tumour cell line growth inhibition, 48 h
SNB-75 CNS = tested on: SNB-75 CNS
MDA-MB-231 breast = tested on: MDA-MB-231 breast
SK-OV-3 ovarian = tested on: SK-OV-3 ovarian
SNB-19 CNS = tested on: SNB-19 CNS
IGROV1 ovarian = tested on: IGROV1 ovarian
HL-60(TB) leukemia = tested on: HL-60(TB) leukemia
KM12 colon = tested on: KM12 colon
OVCAR-8 ovarian = tested on: OVCAR-8 ovarian
UACC-62 melanoma = tested on: UACC-62 melanoma
UACC-257 melanoma = tested on: UACC-257 melanoma
NCI-H23 lung = tested on: NCI-H23 lung
CCRF-CEM leukemia = tested on: CCRF-CEM leukemia
MDA-MB-435 = tested on: MDA-MB-435
NCI-H522 lung = tested on: NCI-H522 lung
LOX IMVI melanoma = tested on: LOX IMVI melanoma
A498 renal = tested on: A498 renal
NCI/ADR-RES ovarian = tested on: NCI/ADR-RES ovarian
EKVX NSCLC = tested on: EKVX NSCLC
SF-539 CNS = tested on: SF-539 CNS
CAKI-1 renal = tested on: CAKI-1 renal
A549 NSCLC = tested on: A549 NSCLC
SR leukemia = tested on: SR leukemia
OVCAR-5 ovarian = tested on: OVCAR-5 ovarian
HCT-116 colon = tested on: HCT-116 colon
MDA-N = tested on: MDA-N
MOLT-4 leukemia = tested on: MOLT-4 leukemia
U251 CNS = tested on: U251 CNS
SK-MEL-28 melanoma = tested on: SK-MEL-28 melanoma
786-0 renal = tested on: 786-0 renal
HOP-92 NSCLC = tested on: HOP-92 NSCLC
ACHN renal = tested on: ACHN renal
SF-268 CNS = tested on: SF-268 CNS
HCT-15 colon = tested on: HCT-15 colon
BT-549 breast = tested on: BT-549 breast
SK-MEL-5 melanoma = tested on: SK-MEL-5 melanoma
TK-10 renal = tested on: TK-10 renal
HS 578T breast = tested on: HS 578T breast
SF-295 CNS = tested on: SF-295 CNS
UO-31 renal = tested on: UO-31 renal
PC-3 prostate = tested on: PC-3 prostate
MCF7 breast = tested on: MCF7 breast
NCI-H460 lung = tested on: NCI-H460 lung
MALME-3M melanoma = tested on: MALME-3M melanoma
K-562 leukemia = tested on: K-562 leukemia
T-47D breast = tested on: T-47D breast
SK-MEL-2 melanoma = tested on: SK-MEL-2 melanoma
NCI-H226 lung = tested on: NCI-H226 lung
RPMI-8226 leukemia = tested on: RPMI-8226 leukemia
OVCAR-3 ovarian = tested on: OVCAR-3 ovarian
RXF 393 renal = tested on: RXF 393 renal
SN12C renal = tested on: SN12C renal
OVCAR-4 ovarian = tested on: OVCAR-4 ovarian
COLO 205 colon = tested on: COLO 205 colon
HT29 colon = tested on: HT29 colon
DU-145 prostate = tested on: DU-145 prostate
M14 melanoma = tested on: M14 melanoma
HOP-62 NSCLC = tested on: HOP-62 NSCLC
SW-620 colon = tested on: SW-620 colon
HCC-2998 colon = tested on: HCC-2998 colon
KM20L2 colon = tested on: KM20L2 colon
M19-MEL melanoma = tested on: M19-MEL melanoma
LXFL 529 NSCLC = tested on: LXFL 529 NSCLC
SNB-78 CNS = tested on: SNB-78 CNS

CCC(C)NC(=S)N/N=C(\C)c1nc2ncccc2[nH]1 (configuration not stated) showed a TGI (SNB-75 CNS) greater than 100 µM, a TGI (MDA-MB-231 breast) greater than 100 µM and a TGI (SK-OV-3 ovarian) greater than 69.9 µM. The TGI (SNB-19 CNS) was 97.8 µM, the TGI (IGROV1 ovarian) was greater than 100 µM and the TGI (HL-60(TB) leukemia) was greater than 100 µM. For the same molecule, the TGI (KM12 colon) was greater than 100 µM, the TGI (OVCAR-8 ovarian) was greater than 100 µM and the TGI (UACC-62 melanoma) was 79.7 µM. For the same molecule, the TGI (UACC-257 melanoma) was greater than 100 µM, the TGI (NCI-H23 lung) was greater than 100 µM and the TGI (CCRF-CEM leukemia) was 38.7 µM. It also gave a TGI (MDA-MB-435) greater than 100 µM, a TGI (NCI-H522 lung) greater than 100 µM and a TGI (LOX IMVI melanoma) greater than 100 µM. The TGI (A498 renal) was greater than 100 µM, the TGI (NCI/ADR-RES ovarian) was greater than 79.5 µM and the TGI (EKVX NSCLC) was greater than 100 µM. It also gave a TGI (SF-539 CNS) of 70.5 µM, a TGI (CAKI-1 renal) of 49.4 µM and a TGI (A549 NSCLC) greater than 100 µM. For the same molecule, the TGI (SR leukemia) was greater than 85.6 µM, the TGI (OVCAR-5 ovarian) was greater than 84 µM and the TGI (HCT-116 colon) was greater than 100 µM. For the same molecule, the TGI (MDA-N) was greater than 100 µM, the TGI (MOLT-4 leukemia) was 46.6 µM and the TGI (U251 CNS) was greater than 100 µM. It also gave a TGI (SK-MEL-28 melanoma) greater than 100 µM, a TGI (786-0 renal) greater than 100 µM and a TGI (HOP-92 NSCLC) of 44.6 µM. For the same molecule, the TGI (ACHN renal) was greater than 100 µM, the TGI (SF-268 CNS) was greater than 88.4 µM and the TGI (HCT-15 colon) was greater than 100 µM. The TGI (BT-549 breast) was greater than 72.3 µM, the TGI (SK-MEL-5 melanoma) was 28.6 µM and the TGI (TK-10 renal) was greater than 100 µM. For the same molecule, the TGI (HS 578T breast) was greater than 100 µM, the TGI (SF-295 CNS) was greater than 100 µM and the TGI (UO-31 renal) was 11.6 µM. It also gave a TGI (PC-3 prostate) greater than 100 µM, a TGI (MCF7 breast) greater than 100 µM and a TGI (NCI-H460 lung) greater than 100 µM. The TGI (MALME-3M melanoma) was greater than 100 µM, the TGI (K-562 leukemia) was greater than 100 µM and the TGI (T-47D breast) was greater than 56.7 µM. For the same molecule, the TGI (SK-MEL-2 melanoma) was greater than 100 µM, the TGI (NCI-H226 lung) was 38.7 µM and the TGI (RPMI-8226 leukemia) was greater than 100 µM. For the same molecule, the TGI (OVCAR-3 ovarian) was greater than 100 µM, the TGI (RXF 393 renal) was greater than 75.6 µM and the TGI (SN12C renal) was greater than 100 µM. It also gave a TGI (OVCAR-4 ovarian) greater than 73 µM, a TGI (COLO 205 colon) greater than 100 µM and a TGI (HT29 colon) greater than 100 µM. For the same molecule, the TGI (DU-145 prostate) was greater than 100 µM, the TGI (M14 melanoma) was 62.6 µM and the TGI (HOP-62 NSCLC) was greater than 100 µM. It also gave a TGI (SW-620 colon) greater than 100 µM and a TGI (HCC-2998 colon) greater than 100 µM.

In the case of CCN(CC)CCN1C(=O)CC2[C@@H]3CCc4cc(OC)ccc4C3CC[C@]2(C)C1=O (some centres not stated), the TGI (SNB-75 CNS) is reported as greater than 100 µM, the TGI (SK-OV-3 ovarian) is reported as greater than 100 µM and the TGI (SNB-19 CNS) is reported as greater than 100 µM. It also gave a TGI (IGROV1 ovarian) greater than 100 µM, a TGI (KM20L2 colon) of 46 µM and a TGI (HL-60(TB) leukemia) of 36.7 µM. The TGI (KM12 colon) was greater than 100 µM, the TGI (UACC-62 melanoma) was 36 µM and the TGI (UACC-257 melanoma) was 30.2 µM. For the same molecule, the TGI (NCI-H23 lung) was greater than 100 µM, the TGI (CCRF-CEM leukemia) was 39.2 µM and the TGI (NCI-H522 lung) was 53.7 µM. It also gave a TGI (M19-MEL melanoma) of 35.8 µM, a TGI (A498 renal) greater than 100 µM and a TGI (SF-539 CNS) of 19.5 µM. It also gave a TGI (OVCAR-5 ovarian) greater than 100 µM, a TGI (LXFL 529 NSCLC) of 30.9 µM and a TGI (U251 CNS) greater than 100 µM. For the same molecule, the TGI (SK-MEL-28 melanoma) was 33.1 µM, the TGI (786-0 renal) was 31.1 µM and the TGI (HOP-92 NSCLC) was greater than 100 µM. For the same molecule, the TGI (ACHN renal) was greater than 100 µM, the TGI (SNB-78 CNS) was greater than 100 µM and the TGI (SF-268 CNS) was greater than 100 µM. It also gave a TGI (SF-295 CNS) of 37.6 µM, a TGI (UO-31 renal) of 64.6 µM and a TGI (NCI-H460 lung) greater than 100 µM. It also gave a TGI (MALME-3M melanoma) of 33.4 µM, a TGI (K-562 leukemia) of 36.1 µM and a TGI (SK-MEL-2 melanoma) of 37.4 µM. For the same molecule, the TGI (RPMI-8226 leukemia) was 66 µM, the TGI (OVCAR-3 ovarian) was greater than 100 µM and the TGI (RXF 393 renal) was 92.3 µM. The TGI (OVCAR-4 ovarian) was greater than 100 µM, the TGI (COLO 205 colon) was 39.1 µM and the TGI (HT29 colon) was 41.4 µM. It also gave a TGI (M14 melanoma) of 33.1 µM and a TGI (HOP-62 NSCLC) of 54.2 µM.
